Among the data in ChEMBL document CHEMBL4837259, “Comprehensive Approach of 19F Nuclear Magnetic Resonance, Enzymatic, and In Silico Methods for Site-Specific Hit Selection and Validation of Fragment Molecules that Inhibit Methionine γ-Lyase Activity” (J Med Chem, 2021) are inhibition and Activity values, retold here.

Structures are written as SMILES. Activity calls are given as the source filed them. The rule behind the calls is not given here.

In test [1] the target is T1, L-methionine gamma-lyase (Fusobacterium nucleatum subsp. nucleatum) (UniProt Q8RDT4).
T1 sequence (whole entry): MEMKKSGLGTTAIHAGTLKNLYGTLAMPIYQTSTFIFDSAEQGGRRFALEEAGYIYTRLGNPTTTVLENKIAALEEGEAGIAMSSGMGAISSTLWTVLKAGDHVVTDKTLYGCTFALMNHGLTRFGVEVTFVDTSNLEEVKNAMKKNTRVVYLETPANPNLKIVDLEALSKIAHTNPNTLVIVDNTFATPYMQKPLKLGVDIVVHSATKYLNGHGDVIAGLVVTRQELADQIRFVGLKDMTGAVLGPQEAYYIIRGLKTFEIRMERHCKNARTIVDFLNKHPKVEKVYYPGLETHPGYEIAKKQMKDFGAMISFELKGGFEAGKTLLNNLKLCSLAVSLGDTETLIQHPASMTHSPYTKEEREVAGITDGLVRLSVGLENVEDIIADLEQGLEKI
Nature of the test: Inhibition of Fusobacterium nucleatum ATCC 25586 recombinant wild type MGL expressed in Escherichia coli BL21 (DE3) assessed as formation of 2-ketobutyrate using L-methionine as substrate by enzymatic assay. Further details: concentration or dose not given beside the values. As to conditions: concentration not given here.

The subject of test [2] is Fusobacterium nucleatum. Nature of the test: Inhibition of Fusobacterium nucleatum ATCC 25586 recombinant MGL R58A mutant expressed in Escherichia coli BL21 (DE3) assessed as decrease in signal intensity by measuring recovery ratio by 19F NMR based competition assay relative to wild type. More on the design: scale not given: the % may be the effect or the level left.
Test [3] concerns Fusobacterium nucleatum. Kind of test: Inhibition of Fusobacterium nucleatum ATCC 25586 recombinant MGL R373K mutant expressed in Escherichia coli BL21 (DE3) assessed as decrease in signal intensity by measuring recovery ratio by 19F NMR based competition assay relative to wild type. More on the design: concentration or dose not given beside the values.
The subject of test [4] is Fusobacterium nucleatum. Kind of test: Inhibition of Fusobacterium nucleatum ATCC 25586 recombinant MGL C113S mutant expressed in Escherichia coli BL21 (DE3) assessed as decrease in signal intensity by measuring recovery ratio by 19F NMR based competition assay relative to wild type.
Test [5] addresses T1, L-methionine gamma-lyase (Fusobacterium nucleatum subsp. nucleatum). Kind of test: Inhibition of Fusobacterium nucleatum ATCC 25586 recombinant wild type MGL expressed in Escherichia coli BL21 (DE3) assessed as decrease in signal intensity by 19F NMR based competition assay relative to control. Further details: concentration or dose not given beside the values.
Test [6] relates to Fusobacterium nucleatum. Nature of the test: Inhibition of Fusobacterium nucleatum ATCC 25586 recombinant MGL K238A mutant expressed in Escherichia coli BL21 (DE3) assessed as decrease in signal intensity by measuring recovery ratio by 19F NMR based competition assay relative to wild type. More on the design: concentration or dose not given beside the values.
The test system of test [7] is Fusobacterium nucleatum. Nature of the test: Inhibition of Fusobacterium nucleatum ATCC 25586 recombinant MGL Y111F mutant expressed in Escherichia coli BL21 (DE3) assessed as decrease in signal intensity by measuring recovery ratio by 19F NMR based competition assay relative to wild type. Further details: concentration or dose not given beside the values.
Test [8] concerns Fusobacterium nucleatum. Nature of the test: Inhibition of Fusobacterium nucleatum ATCC 25586 recombinant MGL R373A mutant expressed in Escherichia coli BL21 (DE3) assessed as decrease in signal intensity by measuring recovery ratio by 19F NMR based competition assay relative to wild type. Further details: scale not given: the % may be the effect or the level left.
Test [9] deals with Fusobacterium nucleatum. Kind of test: Inhibition of Fusobacterium nucleatum ATCC 25586 recombinant MGL R58K mutant expressed in Escherichia coli BL21 (DE3) assessed as decrease in signal intensity by measuring recovery ratio by 19F NMR based competition assay relative to wild type. Further details: scale not given: the % may be the effect or the level left.
The subject of test [10] is Fusobacterium nucleatum. Kind of test: Inhibition of Fusobacterium nucleatum ATCC 25586 recombinant MGL Y56F mutant expressed in Escherichia coli BL21 (DE3) assessed as decrease in signal intensity by measuring recovery ratio by 19F NMR based competition assay relative to wild type. More on the design: concentration or dose not given beside the values.

Take `O=C(O)c1cn(-c2ccccc2F)cn1`: the inhibition (as a rule, the drop in the measured response relative to a control, in per cent) in test [1] is -5.3%. Also, the Activity in test [2] was 80%; in test [5], 26%; in test [8], 50%; in test [9], 80%. Moreover, the result in test [3], in test [4], in [7] and in test [10] was Active. Also, the outcome in test [6] was inactive.
For `O=C(O)c1cc(OC(F)(F)F)ccn1`, the inhibition in test [1] was -6.8%. For the same compound, the Activity in [2] was 80%; in test [5], 4%; in [7], 50%; in test [8], 80%; in test [9] it was 80%; in test [10], 80%. Besides, the outcome in [3], in test [4] and in [6] was Active.
